# Assay results reported in patent US20230242679A1, “BISPECIFIC ANTIBODY THERAPIES” (priority 2022, published 2023).
# “Also recorded” adds a separate entry of the source. Like-named read-outs stand apart in the source and are kept apart here.
# What was measured:
# CD19+Raji tumor cells = test: Raji target cell killing by CD19 CAR T-cells (flow cytometry, 7-AAD); assay type: cell-based, human; settings: 0.36-225 nM; 24 hours; Effector:Target 10:1, 5:1, 1:1; listed as CT01681, monosodium salt
# From the text: The impact of CT01681 on the efficacy of CD19-targeting CAR T-cells in vitro was studied as a surrogate measure of the impact of CTO1681 on T cell function downstream of administering bispecific antibody therapy to a subject. […] CD3 T cells were sorted from one healthy donor PBMCs, stimulated for a short period of time and transduced with CD19 CAR-T lentivirus (LV) containing CD28 and CD3ζ domains. CD19 CAR T-cells were expanded for 6 days and used in the assay. CD19-targeting CD3 T-cells were treated with 5 increasing concentrations of CT01681 (0.36 nM, 1.8 nM, 9 nM, 45 nM, and 225 nM) or vehicle for 30 minutes prior to, and during co-culture with CD19+Raji lymphoma target cells. Media alone, vehicle, and positive control (dexamethasone) wells were included. […] Following incubation, supernatant was collected and levels of pro-inflammatory cytokines IL-6 and TNF-α were measured by multiplex Luminex assay and […] was measured via time-resolved fluorescence resonance energy transfer (TR-FRET) assay. These cytokines were selected for quantification as they are early cytokines released following CAR T-cell infusion and bispecific antibody therapy administration in vivo that causes hyperactivation of the immune system resulting in acute systemic inflammation, CRS, multiorgan failure, and possible death. […]
# [1] = system: CD19-targeting CAR T-cells co-cultured with CD19+Raji lymphoma target cells; test: Cytokine levels in co-culture of CD19 CAR T-cells with Raji cells; assay type: cell-based, human; settings: for Levels of IL-6 / Levels of TNF-α / Levels of IFN-γ: CAR T-cells:Raji cells 10:1; for Levels of IL-6: FIG. 1A; for Levels of TNF-α: FIG. 1B; for Levels of IFN-γ: FIG. 1C
# From the text: The impact of CT01681 on the efficacy of CD19-targeting CAR T-cells in vitro was studied as a surrogate measure of the impact of CTO1681 on T cell function downstream of administering bispecific antibody therapy to a subject. […] CD3 T cells were sorted from one healthy donor PBMCs, stimulated for a short period of time and transduced with CD19 CAR-T lentivirus (LV) containing CD28 and CD3ζ domains. CD19 CAR T-cells were expanded for 6 days and used in the assay. CD19-targeting CD3 T-cells were treated with 5 increasing concentrations of CT01681 (0.36 nM, 1.8 nM, 9 nM, 45 nM, and 225 nM) or vehicle for 30 minutes prior to, and during co-culture with CD19+Raji lymphoma target cells. Media alone, vehicle, and positive control (dexamethasone) wells were included. Following initial treatment, CAR T-cells (Effectors) were co-cultured with fluorescently labeled CD19+Raji tumor cells (Target cells) at 3 different Effector: Target cell ratios (10:1, 5:1 and 1:1) and treated with 5 different concentrations of CT01681 or vehicle for 24 hours. Target cells (Raji cells) were fluorescently labelled with CPD (eBioscience™ Cell Proliferation Dye eFluor™) prior to co-culture to distinguish the Raji cells from the effector cells and allow for analysis of target viability by flow cytometry. Following incubation, supernatant was collected and levels of pro-inflammatory cytokines IL-6 and TNF-α were measured by multiplex Luminex assay and […] was measured via time-resolved fluorescence resonance energy transfer (TR-FRET) assay. These cytokines were selected for quantification as they are early cytokines released following CAR T-cell infusion and bispecific antibody therapy administration in vivo that causes hyperactivation of the immune system resulting in acute systemic inflammation, CRS, multiorgan failure, and possible death. In addition, flow cytometry was used to measure the level of Raji tumor/target cell death following CAR T treatment across CTO1681 conditions to measure impact of CTO1681 with CAR T-cell efficacy. Co-cultures were stained with viability dye 7-AAD for measuring viability.
# normal human PBMC = test: Cytokine release assay in normal human PBMC stimulated with LPS or Poly (I:C); assay type: cell-based; settings: for Number of cytokines reduced of those analyzed: LPS or Poly(I:C), pooled and individual donor results
# [2] = system: CRS in SCID or humanized mice with Raji-luc tumor cells; test: Mouse model of Raji-luc tumor with CAR-T induced CRS (Example 2); settings: IP, BID for 7 days
# influenza (H5N1) = settings: Gemmus Pharma in vivo influenza (H5N1) studies; listed as CT01681, monosodium salt; cited from earlier work
# influenza (H1N1) = assay type: in vivo, mice; settings: for IL-2 in vivo / IL-6 in vivo / IL-10 in vivo: CytoAgents in vivo influenza (H1N1) studies
# [3] = listed as CT01681, monosodium salt
# [4] = Effector:Target 10:1, 0.36-225 nM, 24 hours, Luminex
# [5] = LPS, 24 h supernatant, CTO1681 750 μM
# [6] = Poly(I:C), 24 h supernatant, CTO1681 750 μM
smiles,measurement,setting,value
"CC#CC[C@H](C)[C@H](O)/C=C/[C@@H]1[C@H]2c3cccc(CCCC(=O)[O-])c3O[C@H]2C[C@H]1O.[Na+] [CTO1681, (+)-[1R, 2R, 3aS, 8bS]-2,3,3a,8b-tetrahydro-2-hydroxy-1-[(E)-(3S,4S)-3-hydroxy-4-methyl-1-octen-6-ynyl)-1Hcyclopenta[b]benzofuran-5-butanoic acid, monosodium salt]",Effect on tumor/target cell killing efficacy of CD19 CAR T-cells,CD19+Raji tumor cells,does not interfere; also recorded: absence of an effect; also recorded: did not impact or interfere
same,Levels of IL-6,[1]; [3],dose-dependently lowers
same,Levels of IL-6,[1]; monosodium salt,dose-dependently reduced
same,Levels of TNF-α,[1]; [3],dose-dependently lowers
same,Levels of TNF-α,[1]; monosodium salt,dose-dependently reduced
same,Levels of IFN-γ,[1]; [3],dose-dependently lowers
same,Levels of IFN-γ,[1]; monosodium salt,dose-dependently reduced
same,Maximum reduction of IL-6,[1]; [4],~23%
same,Maximum reduction of TNF-α,[1]; [4],approximately 50%
same,Maximum reduction of IFN-γ,"[1]; Effector:Target 10:1, 0.36-225 nM, 24 hours, TR-FRET",~26%
same,IL-6 with increasing concentrations,"[1]; three CAR-T:Raji ratios (10:1, 5:1, 1:1), FIG. 1D",reduction
same,TNF-α with increasing concentrations,"[1]; three CAR-T:Raji ratios (10:1, 5:1, 1:1), FIG. 1E",reduction
same,IFN-γ with increasing concentrations,"[1]; three CAR-T:Raji ratios (10:1, 5:1, 1:1), FIG. 1F",reduction
same,Nominal reduction in ex vivo production of IFNα,"normal human PBMC; LPS or Poly(I:C) stimulated PBMC, statistically significant",less than 2 fold
same,Number of cytokines reduced of those analyzed,normal human PBMC; [3],21 of the 29
same,Number of cytokines reduced of those analyzed,normal human PBMC; monosodium salt,21
same,Cytokine response CCL2 (MCP-1) (significant reduction),normal human PBMC; [5],YES
same,Cytokine response CCL3 (MIP1 α) (significant reduction),normal human PBMC; [5],YES
same,Cytokine response CCL5 (RANTES) (significant reduction),normal human PBMC; [5],YES
same,Cytokine response CXCL9 (MIG) (significant reduction),normal human PBMC; [5],YES
same,Cytokine response CXCL10 (IP-10) (significant reduction),normal human PBMC; [5],YES
same,Cytokine response FGF (significant reduction),normal human PBMC; [5],YES
same,Cytokine response GM-CSF (significant reduction),normal human PBMC; [5],YES
same,Cytokine response IFN-α2 (significant reduction),normal human PBMC; [5],YES
same,Cytokine response IFN-γ (significant reduction),normal human PBMC; [5],YES
same,Cytokine response IL-1α (significant reduction),normal human PBMC; [5],YES
same,Cytokine response IL-1β (significant reduction),normal human PBMC; [5],YES
same,Cytokine response IL-4 (significant reduction),normal human PBMC; [5],YES
same,Cytokine response IL-5 (significant reduction),normal human PBMC; [5],YES
same,Cytokine response IL-9 (significant reduction),normal human PBMC; [5],YES
same,Cytokine response IL-12 (significant reduction),normal human PBMC; [5],YES
same,Cytokine response IL-13 (significant reduction),normal human PBMC; [5],YES
same,Cytokine response IL-15 (significant reduction),normal human PBMC; [5],YES
same,Cytokine response IL-17 (significant reduction),normal human PBMC; [5],YES
same,Cytokine response IL-18 (significant reduction),normal human PBMC; [5],YES
same,Cytokine response PDGF (significant reduction),normal human PBMC; [5],YES
same,Cytokine response TNF-α (significant reduction),normal human PBMC; [5],YES
same,Cytokine response CCL2 (MCP-1) (significant reduction),normal human PBMC; [6],YES
same,Cytokine response CCL5 (RANTES) (significant reduction),normal human PBMC; [6],YES
same,Cytokine response CXCL9 (MIG) (significant reduction),normal human PBMC; [6],YES
same,Cytokine response CXCL10 (IP-10) (significant reduction),normal human PBMC; [6],YES
same,Cytokine response IFN-α2 (significant reduction),normal human PBMC; [6],YES
same,Cytokine response IFN-γ (significant reduction),normal human PBMC; [6],YES
same,Cytokine response IL-1α (significant reduction),normal human PBMC; [6],YES
same,Cytokine response IL-1β (significant reduction),normal human PBMC; [6],YES
same,Cytokine response IL-4 (significant reduction),normal human PBMC; [6],YES
same,Cytokine response IL-5 (significant reduction),normal human PBMC; [6],YES
same,Cytokine response IL-12 (significant reduction),normal human PBMC; [6],YES
same,Cytokine response IL-13 (significant reduction),normal human PBMC; [6],YES
same,Cytokine response IL-15 (significant reduction),normal human PBMC; [6],YES
same,Cytokine response IL-18 (significant reduction),normal human PBMC; [6],YES
same,Cytokine response PDGF (significant reduction),normal human PBMC; [6],YES
same,Cytokine response TNF-α (significant reduction),normal human PBMC; [6],YES
same,Survival benefits versus dexamethasone,[2],greater survival benefits
same,IL-2 in vivo,influenza (H5N1),reduced; also recorded: significantly suppressed
same,IL-6 in vivo,influenza (H5N1),reduced; also recorded: significantly suppressed
same,IL-8 in vivo,influenza (H5N1),reduced; also recorded: significantly suppressed
same,IL-10 in vivo,influenza (H5N1),reduced; also recorded: significantly suppressed
same,IL-2 in vivo,influenza (H1N1); [3],significantly suppressed
same,IL-6 in vivo,influenza (H1N1); [3],significantly suppressed
same,IL-10 in vivo,influenza (H1N1); [3],significantly suppressed
same,IL-2 in vivo,influenza (H1N1); monosodium salt,reduced
same,IL-6 in vivo,influenza (H1N1); monosodium salt,reduced
same,IL-10 in vivo,influenza (H1N1); monosodium salt,reduced
same,IL-8 in vivo,"influenza (H1N1); mouse, in vivo",significantly suppressed
same,IFN-α concentrations in vivo,"influenza (H1N1); mouse, in vivo, listed as CT01681, monosodium salt",no significant repression
same,IFN-α concentrations in vivo,"influenza (H1N1); mouse, in vivo, monosodium salt",not suppressed
